Tested on: Pneumocystis murina
Assay: Pneumocystis murina prophylaxis study in dexamethasone-immunosuppressed mice (lung nuclei and asci counts)
Format: in vivo, C3H/HeN mice
Conditions: positive control group, 50/250 mg/kg/3x/wk, 6 weeks
Experimental: Briefly, the vehicle was prepared by first adding 1% Tween 20 to sterile phosphate-buffered saline (PBS) and then adding DMSO for a 10% DMSO in 1% Tween 20 in sterile PBS solution. […] For the 20 mg/kg/d dose, the drug was dissolved in vehicle to a concentration of 2.4 mg/ml. The mice then received 0.48 mg in a 200 μl dose. The drug was stored at −20° C. until initiation of dosage. The drug was prepared fresh for every two days of dosing.
C3H/HeN mice (Charles River) were infected with P. murina by intranasal inoculation of P. murina organisms at 2×106/50 μl from our liquid nitrogen repository. Prior to inoculation, the P. murina organisms were pre-incubated overnight in RPMI 1640 medium supplemented with calf serum and antibiotics to eliminate any bacterial contamination. […] Slides were made from the lung homogenates at different dilutions and stained with Diff-Quik to quantify the trophic forms and cresyl echt violet to quantify the asci.
Efficacy is based on the reduction of organism burden between the treatment groups and the negative control group as determined by microscopic evaluation. The nuclei and asci counts for each lung are log transformed and statistical analysis is determined by the analysis of variance (ANOVA); individual groups are compared by the Student-Newman-Keuls t test for multiple comparisons using GraphPad Prism. […]

Substance: trimethoprim/sulfamethoxazole [TMP/SMX]
- asci observed by microscopic evaluation: no asci observed
- nuclei seen by microscopic evaluation: no nuclei seen

Reference: patent US10369188B2, “Methods for preventing and treating pneumocystis infections” (Cidara Therapeutics, Inc., priority 2016, dated 2019)
